Source: patent US9540378B2, “Composition comprising purine derivatives or salt thereof for preventing or treating atopic dermatitis” (DAEWOONG CO., LTD., priority 2012, dated 2017)
Marks after values point to notes of the source that are not given here.

How the values were obtained:
[1] = test system: NC/Nga mice, animal models of atopic dermatitis; assay: In vivo inhibitory activity against atopic dermatitis in 2,4-DNFB-induced NC/Nga mice; settings: for Reducing ratio (%) Dermatitis score: applied on affected sites twice per day for 10 days; for Reducing ratio (%) Dermatitis score / Reducing ratio (%) Difference of left and right ear thicknesses / Reducing ratio (%) Epidermis thickness / Reducing ratio (%) Number of mast cells / Reducing ratio (%) Serum IgE level: vs atopic control group; for Reducing ratio (%) Difference of left and right ear thicknesses / Reducing ratio (%) Epidermis thickness / Reducing ratio (%) Number of mast cells / Reducing ratio (%) Serum IgE level: topical, 10 days
Procedure: NC/Nga mice (male, 6 weeks old), animal models of atopic dermatitis, were subject to complete hair removal of the back skin, and then left for 24 hours for healing the minute wounds on the skin. Atopic dermatitis was induced to the mice as follows. That is, a 0.2% solution of 2,4-DNFB (2,4-dinitrofluorobenzene) was prepared by dissolving in a mixed solvent of acetone and olive oil (3:1, v/v). The solution (150 μl) was applied on the hair-removed site of each mouse twice per week for 4 weeks, to induce atopic dermatitis.
The normal control group (NC) was subject to only complete hair removal of the back skin. In case of the atopic dermatitis-induced atopic control group (AC), only Vaseline was applied on the hair-removed sites. […] Each group includes 8 mice.
The therapeutic activity against atopic dermatitis was evaluated through measuring dermatitis scores, epidermis thicknesses, left and right ear thicknesses, serum IgE levels, and numbers of mast cells.
The dermatitis scores were determined by observing the affected sites at the time when the treatments were completed, and then evaluating the visual changes such as erythema, bleeding, scab, etc., so as to yield the scores ranging from 1 to 10. From the resulting dermatitis scores, the inhibition ratio of each test group was calculated in comparison with the atopic control group.
Skin tissue was taken in a size of 1 cm×1 cm from the central area of each affected site, fixed with 10% formaldehyde solution, embedded in paraffin film, and then cut into a 4 μm section. Each tissue section was subject to hematoxylin-eosin (H&E) staining, and then observed with an optical microscope (×200, 5 sites per tissue) so as to calculate the epidermis thickness thereof.
The left and right ear thicknesses were measured with a digital vernier caliper, at the time when the test was started and at the time when the test was completed.
The serum IgE level was measured in the blood collected from the heart of each group mice, according to ELISA (Enzyme-linked immunosorbent assay) methods.
Skin tissue was taken in a size of 0.5 cm×1 cm from the central area of each affected site, fixed with IHC zinc fixative formalin-free solution, embedded in paraffin film, and then cut into a 4 μm section. Each tissue section was adhered on a slide coated with poly-L-lysine, followed by removing the paraffin and hydrating. Each resulting section was subject to toluidine blue staining, and then observed with an optical microscope (×200, 3 sites per tissue) so as to measure the number of mast cells.
All measurement values were calculated in mean±standard deviation. Statistical significances were determined with ANOVA. ≦5% is considered as being statistically significant.

[2] = test system: IL-6; assay: Inhibition of inflammatory cytokine mRNA expression (RT-PCR) in LPS-treated Raw264.7 cells: IL-6; assay type: cell-based, mouse; settings: 400 uM, LPS 1 ug/ml, 24 hours
Procedure: (§1) The inhibitory activity of the compound of Formula 1 was evaluated against the expressions of inflammatory cytokines of atopic dermatitis, i.e., IL-6, IL-10, IL-12p40, and COX-2. Briefly, the Raw264.7 mouse macrophage cell line (ATCC TIB-71) (about 1×10^6 cells) was added into the each well of a 12-well plate and then incubated in a RPMI medium supplemented with 100 U/ml penicillin, 100 ug/ml streptomycin and 10% fetal bovine serum. The cells were treated with the compound of Formula 1 (400 uM) and LPS (1 ug/ml), and then incubated under the condition of 37° C., 5% CO2 for 24 hours. The cells isolated from each group of the medium were treated with a Trizol reagent to extract the total RNA. Each cDNA was prepared according to the vendor's instruction, using a First strand cDNA synthesis kit (Fermentas). The resulting cDNAs (in the same amount for each cDNA) were subject to PCR amplification. The sense and antisense primers used were prepared according to the disclosures, i.e., Zhi-Qiang Chang et al., J. Nutr. Sci. Vitaminol., 2011, 27, p 118-122, JiYeon Lee et al., Biol. Pharm. Bull., 2007, 30(11), p 2043-2051, E. V. Maryukhnich et al., Biol. Sci., 2007, 414, p 242-245. […]

[3] = test system: IL-10; assay: Inhibition of inflammatory cytokine mRNA expression (RT-PCR) in LPS-treated Raw264.7 cells: IL-10; assay type: cell-based, mouse; settings: 400 uM, LPS 1 ug/ml, 24 hours
Procedure: as §1

[4] = test system: IL-12p40; assay: Inhibition of inflammatory cytokine mRNA expression (RT-PCR) in LPS-treated Raw264.7 cells: IL-12p40; assay type: cell-based, mouse; settings: 400 uM, LPS 1 ug/ml, 24 hours
Procedure: as §1

[5] = test system: COX-2; assay: Inhibition of inflammatory cytokine mRNA expression (RT-PCR) in LPS-treated Raw264.7 cells: COX-2; assay type: cell-based, mouse; settings: 400 uM, LPS 1 ug/ml, 24 hours
Procedure: as §1

[6] = 0.03% and 0.1%, applied on affected sites for 10 days

## Cn1c(N)nc2c(ncn2C)c1=O [compound of Formula 1, 2-amino-1,9-dimethylpurin-6-one]
[1]; [6]
  dermatitis scores, in words: significantly reduced
  differences of left and right ear thicknesses, in words: significantly reduced
  epidermis thicknesses, in words: significantly reduced
  numbers of mast cells, in words: significantly reduced
  serum IgE levels, in words: significantly reduced
[1]; Test group 1 (0.03%)
  Reducing ratio (%) Dermatitis score: 8.96* %
  Reducing ratio (%) Difference of left and right ear thicknesses: 7.69%
  Reducing ratio (%) Epidermis thickness: 36.13*** %
  Reducing ratio (%) Number of mast cells: 7.7%
  Reducing ratio (%) Serum IgE level: 51.76%
[1]; Test group 2 (0.1%)
  Reducing ratio (%) Dermatitis score: 24.00*** %
  Reducing ratio (%) Difference of left and right ear thicknesses: 38.46%
  Reducing ratio (%) Epidermis thickness: 52.63*** %
  Reducing ratio (%) Number of mast cells: 24.9** %
  Reducing ratio (%) Serum IgE level: 56.46** %
[2]
  IL-6 mRNA expression level: effectively inhibited
[3]
  IL-10 mRNA expression level: effectively inhibited
[4]
  IL-12p40 mRNA expression level: effectively inhibited
[5]
  COX-2 mRNA expression level: effectively inhibited
